Source: the NIST ThermoML archive (doi:10.1021/je7005743)
± gives the expanded uncertainty stated by the source.

What was measured:
[1] = 298.15 K; 101.33 kPa; Liquid; Pycnometric method
[2] = excess molar enthalpy (molar enthalpy of mixing); xn = mol fraction of the nth substance listed; details: 303.15 K, 101 kPa, Liquid, Flow calorimetry

CC(C)CC(C)(C)C [2,2,4-trimethylpentane] showed a mass density [1] of 687.91 ± 0.61 kg/m3.
Work on CC(C)CC(C)(C)C [2,2,4-trimethylpentane] + CCO yielded an excess molar enthalpy ([2]; x2 = 0.1291) of 0.13 ± 0.00287 kcal/mol, an excess molar enthalpy ([2]; x2 = 0.2383) of 0.152 ± 0.00335 kcal/mol and an excess molar enthalpy ([2]; x2 = 0.332) of 0.158 ± 0.00335 kcal/mol. It also gave an excess molar enthalpy ([2]; x2 = 0.4132) of 0.157 ± 0.00335 kcal/mol, an excess molar enthalpy ([2]; x2 = 0.4842) of 0.153 ± 0.00335 kcal/mol and an excess molar enthalpy ([2]; x2 = 0.5469) of 0.146 ± 0.00311 kcal/mol. It also gave an excess molar enthalpy ([2]; x2 = 0.6026) of 0.138 ± 0.00311 kcal/mol, an excess molar enthalpy ([2]; x2 = 0.6525) of 0.129 ± 0.00287 kcal/mol and an excess molar enthalpy ([2]; x2 = 0.6974) of 0.12 ± 0.00263 kcal/mol. For the same compound, the excess molar enthalpy ([2]; x2 = 0.738) was 0.11 ± 0.00239 kcal/mol, the excess molar enthalpy ([2]; x2 = 0.7749) was 0.1 ± 0.00217 kcal/mol and the excess molar enthalpy ([2]; x2 = 0.8086) was 0.0898 ± 0.00196 kcal/mol. It also gave an excess molar enthalpy ([2]; x2 = 0.8395) of 0.0797 ± 0.00174 kcal/mol, an excess molar enthalpy ([2]; x2 = 0.8679) of 0.069 ± 0.00153 kcal/mol and an excess molar enthalpy ([2]; x2 = 0.8942) of 0.0582 ± 0.00129 kcal/mol. The excess molar enthalpy ([2]; x2 = 0.9185) was 0.0473 ± 0.00108 kcal/mol, the excess molar enthalpy ([2]; x2 = 0.941) was 0.0357 ± 0.000837 kcal/mol and the excess molar enthalpy ([2]; x2 = 0.962) was 0.024 ± 0.000598 kcal/mol. For the same compound, the excess molar enthalpy ([2]; x2 = 0.9817) was 0.012 ± 0.000359 kcal/mol.
CCCCO [butan-1-ol] gave a mass density [1] of 805.76 ± 0.72 kg/m3.
Work on CCC(C)O (centres undefined) [butan-2-ol] yielded a mass density [1] of 802.57 ± 0.72 kg/m3.
In the case of CCO [ethanol], the mass density [1] is reported as 785.32 ± 0.71 kg/m3.
Work on CCCO [propan-1-ol] yielded a mass density [1] of 799.94 ± 0.72 kg/m3.
For CC(C)O [propan-2-ol], the mass density [1] was 781.32 ± 0.7 kg/m3.
Compound C=COCCC [propyl vinyl ether] has a mass density [1] of 762.96 ± 0.69 kg/m3.
Work on C=COCCC [propyl vinyl ether] + CC(C)CC(C)(C)C yielded an excess molar enthalpy ([2]; x1 = 0.0715) of 0.0253 ± 0.000621 kcal/mol, an excess molar enthalpy ([2]; x1 = 0.1398) of 0.0464 ± 0.00105 kcal/mol and an excess molar enthalpy ([2]; x1 = 0.2052) of 0.0635 ± 0.00141 kcal/mol. For the same compound, the excess molar enthalpy ([2]; x1 = 0.2678) was 0.0775 ± 0.0017 kcal/mol, the excess molar enthalpy ([2]; x1 = 0.3278) was 0.0878 ± 0.00194 kcal/mol and the excess molar enthalpy ([2]; x1 = 0.3853) was 0.0954 ± 0.00208 kcal/mol. The excess molar enthalpy ([2]; x1 = 0.4406) was 0.1 ± 0.0022 kcal/mol, the excess molar enthalpy ([2]; x1 = 0.4937) was 0.103 ± 0.00225 kcal/mol and the excess molar enthalpy ([2]; x1 = 0.5448) was 0.103 ± 0.00225 kcal/mol. It also gave an excess molar enthalpy ([2]; x1 = 0.5939) of 0.101 ± 0.0022 kcal/mol, an excess molar enthalpy ([2]; x1 = 0.6413) of 0.097 ± 0.00213 kcal/mol and an excess molar enthalpy ([2]; x1 = 0.6869) of 0.0917 ± 0.00201 kcal/mol. It also gave an excess molar enthalpy ([2]; x1 = 0.7309) of 0.0846 ± 0.00186 kcal/mol, an excess molar enthalpy ([2]; x1 = 0.7734) of 0.0758 ± 0.00167 kcal/mol and an excess molar enthalpy ([2]; x1 = 0.8144) of 0.0658 ± 0.00146 kcal/mol. The excess molar enthalpy ([2]; x1 = 0.854) was 0.0547 ± 0.00122 kcal/mol, the excess molar enthalpy ([2]; x1 = 0.8923) was 0.0418 ± 0.000956 kcal/mol and the excess molar enthalpy ([2]; x1 = 0.9294) was 0.0277 ± 0.000669 kcal/mol. The excess molar enthalpy ([2]; x1 = 0.9653) was 0.0138 ± 0.000382 kcal/mol.
Compound C=COCCC [propyl vinyl ether] + CCO has an excess molar enthalpy ([2]; x1 = 0.0265) of 0.014 ± 0.000382 kcal/mol, an excess molar enthalpy ([2]; x1 = 0.0543) of 0.0284 ± 0.000669 kcal/mol and an excess molar enthalpy ([2]; x1 = 0.0836) of 0.0441 ± 0.001 kcal/mol. For the same compound, the excess molar enthalpy ([2]; x1 = 0.1145) was 0.0602 ± 0.00134 kcal/mol, the excess molar enthalpy ([2]; x1 = 0.147) was 0.0766 ± 0.0017 kcal/mol and the excess molar enthalpy ([2]; x1 = 0.1814) was 0.0936 ± 0.00206 kcal/mol. For the same compound, the excess molar enthalpy ([2]; x1 = 0.2178) was 0.111 ± 0.00239 kcal/mol, the excess molar enthalpy ([2]; x1 = 0.2564) was 0.129 ± 0.00287 kcal/mol and the excess molar enthalpy ([2]; x1 = 0.2973) was 0.146 ± 0.00311 kcal/mol. It also gave an excess molar enthalpy ([2]; x1 = 0.3409) of 0.164 ± 0.00359 kcal/mol, an excess molar enthalpy ([2]; x1 = 0.3873) of 0.179 ± 0.00382 kcal/mol and an excess molar enthalpy ([2]; x1 = 0.4368) of 0.195 ± 0.0043 kcal/mol. The excess molar enthalpy ([2]; x1 = 0.4899) was 0.209 ± 0.00454 kcal/mol, the excess molar enthalpy ([2]; x1 = 0.5468) was 0.221 ± 0.00478 kcal/mol and the excess molar enthalpy ([2]; x1 = 0.608) was 0.229 ± 0.00502 kcal/mol. For the same compound, the excess molar enthalpy ([2]; x1 = 0.6741) was 0.233 ± 0.00502 kcal/mol, the excess molar enthalpy ([2]; x1 = 0.7456) was 0.227 ± 0.00478 kcal/mol and the excess molar enthalpy ([2]; x1 = 0.8231) was 0.207 ± 0.00454 kcal/mol. For the same compound, the excess molar enthalpy ([2]; x1 = 0.9076) was 0.157 ± 0.00335 kcal/mol.
